Measurements: US20250214991A1 (Oncopia Therapeutics, Inc. d/b/a/ SK Life Science Labs, priority 2022, published 2025)
One block for each molecule: values may come before it.

Assays:
IKZF1 = IKZF1 (Homo sapiens (Human), UniProt Q13422+Q96SW2); experiment: In vitro IKZF1 HiBit Assay (HEK293T Flp-in-HiBiT-IKZF1 stable cell line); format: cell-based; conditions: HEK293T Flp-in-HiBiT-IKZF1 stable cell line, 6 hrs incubation; for DC50: read-out: IKZF1 HiBit DC50; for Dmax: HEK-293T, read-out: IKZF1 HiBit Dmax (%)
How it was run: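 Degradation was measured as loss of luminescence from the HiBiT-IKZF1 tag after 6 h compound treatment, with 0.1% final DMSO, in stable HEK293T Flp-in cells. Values were normalized to DMSO, giving the 50% degradation concentration and the maximal degradation range.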

IKZF2 = IKZF2 (Homo sapiens (Human), UniProt Q96SW2+Q9UKS7); experiment: In vitro IKZF2 HiBit Assay (HEK293T Flp-in-HiBiT cells); format: cell-based; conditions: HEK293T Flp-in-HiBiT cells, 6 hrs incubation; for DC50: read-out: IKZF2 HiBit DC50; for Dmax: HEK-293T, read-out: IKZF2 HiBit Dmax (%)
How it was run: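 Remaining tagged Helios was read as lytic HiBiT/LgBiT luminescence normalized to DMSO, yielding binned DC50 and Dmax values. Treatment ran 6 h, with compounds at 11 three-fold doses diluted from 1 mM and 0.1% final DMSO. The cells were HEK293T Flp-in with CRISPR knock-in of HiBiT at the IKZF2 N-terminus.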

CRBN/DDB1 = CRBN/DDB1 (Homo sapiens (Human), UniProt Q96SW2); experiment: IC50 measurements for binding to CRBN/DDB1 (HTRF); conditions: His tagged CRBN+DDB, Cy5-labeled Thalidomide probe, one hour
How it was run: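 Serially diluted compounds compete with a Cy5-labeled thalidomide tracer (60 nM) for His-tagged CRBN-DDB1 (2 nM), detected via anti-6His Tb cryptate (0.4 nM); buffer HEPES pH 7.5 with TCEP, Brij-35, NaCl, BSA. One-hour room-temperature incubation, HTRF signal read, IC50 by four-parameter curve.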

Chain of IKZF1 (Q13422 whole entry): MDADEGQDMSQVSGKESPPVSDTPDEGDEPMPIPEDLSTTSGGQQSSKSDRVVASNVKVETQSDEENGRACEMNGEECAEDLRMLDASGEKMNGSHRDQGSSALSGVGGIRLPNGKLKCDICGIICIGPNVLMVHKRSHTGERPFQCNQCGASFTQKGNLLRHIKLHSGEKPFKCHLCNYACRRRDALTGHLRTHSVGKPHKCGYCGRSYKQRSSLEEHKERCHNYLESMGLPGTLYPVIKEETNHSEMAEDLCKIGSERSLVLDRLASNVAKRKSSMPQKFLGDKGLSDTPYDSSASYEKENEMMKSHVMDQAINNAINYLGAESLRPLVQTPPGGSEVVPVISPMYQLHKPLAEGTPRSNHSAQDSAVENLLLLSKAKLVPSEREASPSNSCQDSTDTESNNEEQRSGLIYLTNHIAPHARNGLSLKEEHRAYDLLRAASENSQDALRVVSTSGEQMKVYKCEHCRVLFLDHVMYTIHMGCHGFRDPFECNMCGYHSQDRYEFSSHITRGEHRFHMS
Chain of IKZF1 (Q96SW2 whole entry): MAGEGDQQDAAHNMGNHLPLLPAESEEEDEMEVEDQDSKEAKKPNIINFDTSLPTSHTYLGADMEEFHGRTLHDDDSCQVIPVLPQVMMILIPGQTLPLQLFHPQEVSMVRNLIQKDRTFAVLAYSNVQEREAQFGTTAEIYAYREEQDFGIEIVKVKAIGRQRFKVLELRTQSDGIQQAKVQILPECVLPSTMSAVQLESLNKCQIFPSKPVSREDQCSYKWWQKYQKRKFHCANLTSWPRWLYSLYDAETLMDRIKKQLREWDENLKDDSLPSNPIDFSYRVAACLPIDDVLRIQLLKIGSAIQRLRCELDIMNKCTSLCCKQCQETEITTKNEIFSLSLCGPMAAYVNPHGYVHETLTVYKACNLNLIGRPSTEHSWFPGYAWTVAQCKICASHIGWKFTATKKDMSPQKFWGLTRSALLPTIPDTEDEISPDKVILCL
Chain of IKZF1 (Q16531 2-1140 partner): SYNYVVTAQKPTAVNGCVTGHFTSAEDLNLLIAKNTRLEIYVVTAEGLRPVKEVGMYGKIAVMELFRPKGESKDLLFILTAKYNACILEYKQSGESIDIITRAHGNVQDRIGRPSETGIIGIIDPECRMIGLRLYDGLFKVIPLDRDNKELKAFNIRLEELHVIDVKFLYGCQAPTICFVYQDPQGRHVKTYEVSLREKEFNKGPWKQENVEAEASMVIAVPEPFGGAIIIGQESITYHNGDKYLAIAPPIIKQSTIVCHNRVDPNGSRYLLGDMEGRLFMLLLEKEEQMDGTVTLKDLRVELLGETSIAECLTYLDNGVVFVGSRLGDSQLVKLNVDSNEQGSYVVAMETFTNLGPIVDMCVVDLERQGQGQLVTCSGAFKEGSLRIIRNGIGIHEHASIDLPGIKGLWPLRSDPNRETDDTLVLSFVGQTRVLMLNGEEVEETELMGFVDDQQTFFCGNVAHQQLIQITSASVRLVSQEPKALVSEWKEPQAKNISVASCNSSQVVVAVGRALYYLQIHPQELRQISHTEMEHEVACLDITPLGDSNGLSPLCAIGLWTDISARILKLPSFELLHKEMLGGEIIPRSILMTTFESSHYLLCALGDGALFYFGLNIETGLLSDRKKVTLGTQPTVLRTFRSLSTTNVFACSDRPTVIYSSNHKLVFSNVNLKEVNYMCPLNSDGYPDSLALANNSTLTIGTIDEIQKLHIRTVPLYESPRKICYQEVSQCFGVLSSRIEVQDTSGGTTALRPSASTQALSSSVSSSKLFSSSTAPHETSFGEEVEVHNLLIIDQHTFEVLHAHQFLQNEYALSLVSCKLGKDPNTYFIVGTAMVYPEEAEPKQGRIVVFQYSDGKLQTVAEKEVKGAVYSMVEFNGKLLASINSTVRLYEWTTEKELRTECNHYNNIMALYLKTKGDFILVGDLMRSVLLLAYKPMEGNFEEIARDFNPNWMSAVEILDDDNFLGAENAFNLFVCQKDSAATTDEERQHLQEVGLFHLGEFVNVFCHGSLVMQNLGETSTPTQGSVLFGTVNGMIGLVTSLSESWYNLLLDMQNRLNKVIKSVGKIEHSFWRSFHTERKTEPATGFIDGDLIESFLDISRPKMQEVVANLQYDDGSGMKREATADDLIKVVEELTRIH
Chain of IKZF2 (Q9UKS7 whole entry): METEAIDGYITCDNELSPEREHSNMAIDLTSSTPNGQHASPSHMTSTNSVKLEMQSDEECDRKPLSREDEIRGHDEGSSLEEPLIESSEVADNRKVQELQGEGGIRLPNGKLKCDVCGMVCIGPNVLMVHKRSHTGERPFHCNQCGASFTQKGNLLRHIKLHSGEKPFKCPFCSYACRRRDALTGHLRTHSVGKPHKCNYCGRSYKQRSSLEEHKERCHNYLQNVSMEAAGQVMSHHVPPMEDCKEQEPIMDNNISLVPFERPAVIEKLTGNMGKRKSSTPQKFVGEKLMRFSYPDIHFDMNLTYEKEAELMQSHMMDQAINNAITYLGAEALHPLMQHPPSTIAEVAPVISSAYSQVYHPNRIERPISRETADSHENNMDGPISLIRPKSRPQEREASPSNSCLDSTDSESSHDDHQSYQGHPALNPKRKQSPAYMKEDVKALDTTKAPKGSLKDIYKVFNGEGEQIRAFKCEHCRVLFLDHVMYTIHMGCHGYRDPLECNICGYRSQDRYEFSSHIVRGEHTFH
Chain of IKZF2 (Q96SW2 whole entry): as the sequence (Q96SW2 whole entry) above
Chain of IKZF2 (Q16531 2-1140 partner): as the sequence (Q16531 2-1140 partner) above
Chain of CRBN/DDB1 (Q96SW2 whole entry, species assumed): as the sequence (Q96SW2 whole entry) above
Chain of CRBN/DDB1 (Q16531 whole entry partner, species assumed): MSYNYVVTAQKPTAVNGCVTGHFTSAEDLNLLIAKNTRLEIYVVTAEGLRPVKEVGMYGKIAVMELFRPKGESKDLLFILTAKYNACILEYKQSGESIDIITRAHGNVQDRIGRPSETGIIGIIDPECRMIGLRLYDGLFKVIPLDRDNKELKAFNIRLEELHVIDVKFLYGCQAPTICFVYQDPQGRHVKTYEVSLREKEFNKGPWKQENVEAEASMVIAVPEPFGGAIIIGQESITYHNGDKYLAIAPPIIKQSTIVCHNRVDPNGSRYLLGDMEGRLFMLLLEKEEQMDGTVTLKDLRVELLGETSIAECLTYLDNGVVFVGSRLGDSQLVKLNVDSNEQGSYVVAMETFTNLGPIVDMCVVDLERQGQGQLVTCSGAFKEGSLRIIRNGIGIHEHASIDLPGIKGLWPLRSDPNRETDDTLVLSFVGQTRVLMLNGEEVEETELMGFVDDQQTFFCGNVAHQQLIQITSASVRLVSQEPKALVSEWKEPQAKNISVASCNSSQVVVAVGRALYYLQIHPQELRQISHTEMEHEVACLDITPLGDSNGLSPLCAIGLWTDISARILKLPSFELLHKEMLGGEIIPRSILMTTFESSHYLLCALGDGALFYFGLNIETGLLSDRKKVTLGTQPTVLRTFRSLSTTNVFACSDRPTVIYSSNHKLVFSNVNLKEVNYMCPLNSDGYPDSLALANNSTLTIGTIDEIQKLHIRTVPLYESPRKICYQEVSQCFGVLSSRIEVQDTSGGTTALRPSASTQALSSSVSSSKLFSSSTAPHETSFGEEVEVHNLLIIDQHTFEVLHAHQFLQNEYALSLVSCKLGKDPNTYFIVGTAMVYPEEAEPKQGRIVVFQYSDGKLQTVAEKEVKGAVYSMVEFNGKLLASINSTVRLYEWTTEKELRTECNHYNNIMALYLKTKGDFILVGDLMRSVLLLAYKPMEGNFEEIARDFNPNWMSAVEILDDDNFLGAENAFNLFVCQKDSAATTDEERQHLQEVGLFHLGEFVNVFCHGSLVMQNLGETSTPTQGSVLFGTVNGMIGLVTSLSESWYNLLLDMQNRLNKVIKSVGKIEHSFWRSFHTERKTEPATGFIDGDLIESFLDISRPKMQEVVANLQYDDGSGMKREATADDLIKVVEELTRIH

SMILES: Nc1n[nH]c2c(CN3CCC(F)C3)cc(-c3ccc4c(c3)CN(C3CCC(=O)NC3=O)C4=O)nc12 (stereo not drawn) [Example 201, 3-(5-(3-amino-7-((3-fluoropyrrolidin-1-yl)methyl)-1H-pyrazolo[4,3-b]pyridin-5-yl)-1-oxoisoindolin-2-yl) piperidine-2,6-dione]
DC50 (IKZF1): 1000 to 10000 nM
Dmax (IKZF1): 20 to 40%
DC50 (IKZF2): 10 to 100 nM
Dmax (IKZF2): 60 to 80%
IC50 (CRBN/DDB1): 500 to 1000 nM

SMILES: O=C1CCC(N2Cc3cc(-c4cc(CN5CC(F)C5)c5ccn(C6CC6)c5n4)ccc3C2=O)C(=O)N1 (stereo not drawn) [Example 143, 3-(5-(1-cyclopropyl-4-((3-fluoroazetidin-1-yl)methyl)-1H-pyrrolo[2,3-b]pyridin-6-yl)-1-oxoisoindolin-2-yl) piperidine-2,6-dione]
DC50 (IKZF1): > 10000 nM
Dmax (IKZF1): < 20%
DC50 (IKZF2): 1 to 10 nM
Dmax (IKZF2): > 80%
IC50 (CRBN/DDB1): 1000 to 5000 nM

SMILES: O=C1CCC(N2Cc3cc(-c4cc(CN5CCCC5)c5[nH]nc(C6CCC6)c5n4)ccc3C2=O)C(=O)N1 (stereo not drawn) [Example 224, 3-(5-(3-cyclobutyl-7-(pyrrolidin-1-ylmethyl)-1H-pyrazolo[4,3-b]pyridin-5-yl)-1-oxoisoindolin-2-yl) piperidine-2,6-dione]
DC50 (IKZF1): 10 to 100 nM
Dmax (IKZF1): 40 to 60%
DC50 (IKZF2): < 1 nM
Dmax (IKZF2): 60 to 80%
IC50 (CRBN/DDB1): 1000 to 5000 nM

SMILES: Cn1ccc2c(C(=O)N3CCCC3)cc(-c3ccc4c(c3)CN(C3CCC(=O)NC3=O)C4=O)nc21 (stereo not drawn) [Example 89, 3-(5-(1-methyl-4-(pyrrolidine-1-carbonyl)-1H-pyrrolo[2,3-b]pyridin-6-yl)-1-oxoisoindolin-2-yl) piperidine-2,6-dione]
DC50 (IKZF1): > 10000 nM
Dmax (IKZF1): < 20%
DC50 (IKZF2): 100 to 1000 nM
Dmax (IKZF2): 20 to 40%
IC50 (CRBN/DDB1): 500 to 1000 nM

SMILES: O=C1CCC(N2Cc3cc(-c4cc(CN5CCCC5)c5ccn(C6CNC6)c5n4)ccc3C2=O)C(=O)N1 (stereo not drawn) [Example 168, 3-(5-(1-(azetidin-3-yl)-4-(pyrrolidin-1-ylmethyl)-1H-pyrrolo[2,3-b]pyridin-6-yl)-1-oxoisoindolin-2-yl) piperidine-2,6-dione]
DC50 (IKZF1): 1000 to 10000 nM
Dmax (IKZF1): 20 to 40%
DC50 (IKZF2): 100 to 1000 nM
Dmax (IKZF2): 60 to 80%
IC50 (CRBN/DDB1): 500 to 1000 nM

SMILES: Cn1ccc2c(CN3CCCCCC3)cc(-c3ccc4c(c3)CN(C3CCC(=O)NC3=O)C4=O)nc21 (stereo not drawn) [Example 302, 3-(5-(4-(azepan-1-ylmethyl)-1-methyl-1H-pyrrolo[2,3-b]pyridin-6-yl)-1-oxoisoindolin-2-yl) piperidine-2,6-dione]
DC50 (IKZF1): 1 to 10 nM
Dmax (IKZF1): 20 to 40%
DC50 (IKZF2): < 1 nM
Dmax (IKZF2): > 80%
IC50 (CRBN/DDB1): 1000 to 5000 nM

SMILES: CCn1ccc2c(CN3CCCC3)cc(-c3ccc4c(c3)CN(C3CCC(=O)NC3=O)C4=O)nc21 (stereo not drawn) [Example 74, 3-(5-(1-ethyl-4-(pyrrolidin-1-ylmethyl)-1H-pyrrolo[2,3-b]pyridin-6-yl)-1-oxoisoindolin-2-yl) piperidine-2,6-dione]
DC50 (IKZF1): > 10000 nM
Dmax (IKZF1): < 20%
DC50 (IKZF2): 1 to 10 nM
Dmax (IKZF2): > 80%
IC50 (CRBN/DDB1): 500 to 1000 nM

SMILES: Cn1ccc2c(CN3CC4(COC4)C3)cc(-c3ccc4c(c3)CN(C3CCC(=O)NC3=O)C4=O)nc21 (stereo not drawn) [Example 91, 3-(5-(4-((2-oxa-6-azaspiro[3.3]heptan-6-yl)methyl)-1-methyl-1H-pyrrolo[2,3-b]pyridin-6-yl)-1-oxoisoindolin-2-yl) piperidine-2,6-dione]
DC50 (IKZF1): 10 to 100 nM
Dmax (IKZF1): 20 to 40%
DC50 (IKZF2): 1 to 10 nM
Dmax (IKZF2): > 80%
IC50 (CRBN/DDB1): 500 to 1000 nM

SMILES: Cn1ccc2c(CN3CC4(CCC4)C3)cc(-c3ccc4c(c3)CN(C3CCC(=O)NC3=O)C4=O)nc21 (stereo not drawn) [Example 112, 3-(5-(4-((2-azaspiro[3.3]heptan-2-yl)methyl)-1-methyl-1H-pyrrolo[2,3-b]pyridin-6-yl)-1-oxoisoindolin-2-yl) piperidine-2,6-dione]
DC50 (IKZF1): 10 to 100 nM
Dmax (IKZF1): 20 to 40%
DC50 (IKZF2): < 1 nM
Dmax (IKZF2): > 80%
IC50 (CRBN/DDB1): 100 to 500 nM

SMILES: O=C1CCC(N2Cc3c(ccc(-c4cc(CN5CCCC5)c5cc[nH]c5n4)c3F)C2=O)C(=O)N1 (stereo not drawn) [Example 126, 3-(4-fluoro-1-oxo-5-(4-(pyrrolidin-1-ylmethyl)-1H-pyrrolo[2,3-b]pyridin-6-yl)isoindolin-2-yl) piperidine-2,6-dione]
DC50 (IKZF1): 1 to 10 nM
Dmax (IKZF1): 40 to 60%
DC50 (IKZF2): < 1 nM
Dmax (IKZF2): > 80%
IC50 (CRBN/DDB1): 100 to 500 nM

SMILES: CN(C)CC1CCN(Cc2cc(-c3ccc4c(c3)CN(C3CCC(=O)NC3=O)C4=O)nc3[nH]ccc23)C1 (stereo not drawn) [Example 123]
DC50 (IKZF1): 10 to 100 nM
Dmax (IKZF1): 20 to 40%
DC50 (IKZF2): 1 to 10 nM
Dmax (IKZF2): > 80%
IC50 (CRBN/DDB1): 100 to 500 nM

SMILES: O=C1CCC(N2Cc3cc(-c4ncn5ccc(CN6CCCC6)cc45)ccc3C2=O)C(=O)N1 (stereo not drawn) [Example 312, 3-(1-oxo-5-(7-(pyrrolidin-1-ylmethyl)imidazo[1,5-a]pyridin-1-yl)isoindolin-2-yl) piperidine-2,6-dione]
DC50 (IKZF1): > 10000 nM
Dmax (IKZF1): < 20%
DC50 (IKZF2): 10 to 100 nM
Dmax (IKZF2): 20 to 40%
IC50 (CRBN/DDB1): 1000 to 5000 nM

DC50 (IKZF1): > 10000 nM
Dmax (IKZF1): < 20%
DC50 (IKZF2): 1 to 10 nM
Dmax (IKZF2): 60 to 80%
IC50 (CRBN/DDB1): 500 to 1000 nM
SMILES: C[C@@H]1CC[C@@H](C)N1Cc1cc(-c2ccc3c(c2)CN(C2CCC(=O)NC2=O)C3=O)nc2c1ccn2C (stereo partly drawn) [Example 108, 3-(5-(4-(((2R,5R)-2,5-dimethylpyrrolidin-1-yl)methyl)-1-methyl-1H-pyrrolo[2,3-b]pyridin-6-yl)-1-oxoisoindolin-2-yl) piperidine-2,6-dione]

SMILES: Cn1ccc2c(CN3CCC(n4cccn4)CC3)cc(-c3ccc4c(c3)CN(C3CCC(=O)NC3=O)C4=O)nc21 (stereo not drawn) [Example 94, 3-(5-(4-((4-(1H-pyrazol-1-yl)piperidin-1-yl)methyl)-1-methyl-1H-pyrrolo[2,3-b]pyridin-6-yl)-1-oxoisoindolin-2-yl) piperidine-2,6-dione]
DC50 (IKZF1): > 10000 nM
Dmax (IKZF1): < 20%
DC50 (IKZF2): 1 to 10 nM
Dmax (IKZF2): 60 to 80%
IC50 (CRBN/DDB1): < 100 nM

SMILES: O=C1CCC(N2Cc3cc(-c4cc(CN5CCC(O)C5)c5ccn(C6CC6)c5n4)ccc3C2=O)C(=O)N1 (stereo not drawn) [Example 142, 3-(5-(1-cyclopropyl-4-((3-hydroxypyrrolidin-1-yl)methyl)-1H-pyrrolo[2,3-b]pyridin-6-yl)-1-oxoisoindolin-2-yl) piperidine-2,6-dione]
DC50 (IKZF1): > 10000 nM
Dmax (IKZF1): < 20%
DC50 (IKZF2): 1 to 10 nM
Dmax (IKZF2): > 80%
IC50 (CRBN/DDB1): 500 to 1000 nM

DC50 (IKZF1): 10 to 100 nM
Dmax (IKZF1): 20 to 40%
DC50 (IKZF2): < 1 nM
Dmax (IKZF2): > 80%
IC50 (CRBN/DDB1): 1000 to 5000 nM
SMILES: Cn1ncc2c(CN3CCCC3)cc(-c3ccc4c(c3)CN(C3CCC(=O)NC3=O)C4=O)nc21 (stereo not drawn) [Example 313, 3-(5-(1-methyl-4-(pyrrolidin-1-ylmethyl)-1H-pyrazolo[3,4-b]pyridin-6-yl)-1-oxoisoindolin-2-yl) piperidine-2,6-dione]

SMILES: Cn1ccc2c(CN3CCC(O)C3)cc(-c3ccc4c(c3)CN(C3CCC(=O)NC3=O)C4=O)nc21 (stereo not drawn) [Example 303, 3-(5-(4-((3-hydroxypyrrolidin-1-yl)methyl)-1-methyl-1H-pyrrolo[2,3-b]pyridin-6-yl)-1-oxoisoindolin-2-yl) piperidine-2,6-dione]
DC50 (IKZF1): 10 to 100 nM
Dmax (IKZF1): 20 to 40%
DC50 (IKZF2): 1 to 10 nM
Dmax (IKZF2): > 80%
IC50 (CRBN/DDB1): 1000 to 5000 nM

SMILES: Cn1ccc2c(CN3CCC4(CCC4)CC3)cc(-c3ccc4c(c3)CN(C3CCC(=O)NC3=O)C4=O)nc21 (stereo not drawn) [Example 69, 3-(5-(4-((7-azaspiro[3.5]nonan-7-yl)methyl)-1-methyl-1H-pyrrolo[2,3-b]pyridin-6-yl)-1-oxoisoindolin-2-yl) piperidine-2,6-dione]
DC50 (IKZF1): > 10000 nM
Dmax (IKZF1): 20 to 40%
DC50 (IKZF2): < 1 nM
Dmax (IKZF2): > 80%
IC50 (CRBN/DDB1): 100 to 500 nM

DC50 (IKZF1): 100 to 1000 nM
Dmax (IKZF1): 20 to 40%
DC50 (IKZF2): 1 to 10 nM
Dmax (IKZF2): 60 to 80%
IC50 (CRBN/DDB1): 500 to 1000 nM
SMILES: CCn1nc(N)c2nc(-c3ccc4c(c3)CN(C3CCC(=O)NC3=O)C4=O)cc(CN3CCCC3)c21 (stereo not drawn) [Example 178, 3-(5-(3-amino-1-ethyl-7-(pyrrolidin-1-ylmethyl)-1H-pyrazolo[4,3-b]pyridin-5-yl)-1-oxoisoindolin-2-yl) piperidine-2,6-dione]

SMILES: Nc1n[nH]c2c(CN3CC4COCC4C3)cc(-c3ccc4c(c3)CN(C3CCC(=O)NC3=O)C4=O)nc12 (stereo not drawn) [Example 214, 3-(5-(3-amino-7-((tetrahydro-1H-furo[3,4-c]pyrrol-5 (3H)-yl)methyl)-1H-pyrazolo[4,3-b]pyridin-5-yl)-1-oxoisoindolin-2-yl) piperidine-2,6-dione]
DC50 (IKZF1): > 10000 nM
Dmax (IKZF1): < 20%
DC50 (IKZF2): 100 to 1000 nM
Dmax (IKZF2): 60 to 80%
IC50 (CRBN/DDB1): 100 to 500 nM

DC50 (IKZF1): 10 to 100 nM
Dmax (IKZF1): 20 to 40%
DC50 (IKZF2): 1 to 10 nM
Dmax (IKZF2): 60 to 80%
IC50 (CRBN/DDB1): 500 to 1000 nM
SMILES: CC(C)n1nc(N)c2nc(-c3ccc4c(c3)CN(C3CCC(=O)NC3=O)C4=O)cc(CN3CCCC3)c21 (stereo not drawn) [Example 177, 3-(5-(3-amino-1-isopropyl-7-(pyrrolidin-1-ylmethyl)-1H-pyrazolo[4,3-b]pyridin-5-yl)-1-oxoisoindolin-2-yl) piperidine-2,6-dione]
